These results are taken from patent US20130150399A1, “INHIBITORS OF THE UNFOLDED PROTEIN RESPONSE AND METHODS FOR THEIR USE” (The Board of Trustees of the Leland Stanford Junior …, priority 2006, published 2013).

The term inhibition denotes the change of the read-out against control, counted positive when it falls.

Test [1] concerns XBP-luciferase reporter. The test can be described thus: XBP-luciferase reporter assay under Tm or hypoxia, HT1080 cells. The class given is cell-based, human. How it is done: (§1) HT1080 cells stably expressing the XBP-luciferase construct were grown in 60 mm dishes to 60-70% confluency. Following hypoxia treatment, cells were washed twice with PBS, lysed in 400 μl 1× reporter lysis buffer (RLB) (Promega, Madison Wis.) for 30 min at 24° C. Lysates (100 μl) were mixed with an equal volume of luciferase substrate (Promega), and assayed using a luminometer. For 5×-UPRE-luciferase reporter assays, cells were co-transfected with the appropriate reporter plasmid and a control plasmid (pSV40-beta-gal) using Lipofectamine 2000 (Invitrogen, San Diego, Calif.). Twenty-four hours after transfection, fresh media was added, and cells were treated with Tm or shifted to hypoxia. After treatment, cells were lysed in 1×RLB and analyzed for luciferase activity as described above. Beta-galactosidase activity was determined using the beta-galactosidase enzyme assay system (Promega).
A. XBP-luciferase reporter construct. Firefly luciferase was inserted downstream of the IRE1α splice site in human XBP-1 to enable the conditional translation of luciferase under ER stress in an IRE1α-dependent manner. B. Selective inhibition of the XBP-luciferase reporter by irestatin 9389. HT1080 human fibrosarcoma cells stably expressing the XBP-luciferase reporter or CMV-luciferase were cultured in the presence of Tm (4 μg/ml) and Tg (0.4 μM) and irestatin 9389 at the indicated concentrations. After 24 hours, luciferase activity was analyzed in an automated plate reader. For each cell line, values are expressed as the percent inhibition of the median for Tm/Tg-treated wells, corrected for background. C. Structure of irestatin 9389. D. XBP-luciferase reporter assay. HT1080 cells stably expressing the XBP-luciferase reporter were exposed to Tm (4 μg/ml) for 24 hours or hypoxia (0.1% oxygen) for 24 or 48 hours, in the presence of DMSO or irestatin 9389 (1 μM) as indicated. Values are expressed as the fold increases over uninduced levels. E. 5×-UPRE reporter assay. HT1080 cells were co-transfected with 5×-UPRE luciferase and SV40-beta-gal reporter plasmids, followed by exposure to Tm or hypoxia as in D. For each condition, luciferase activity is normalized to beta-galactosidase expression levels as an internal control for transfection efficiency. F. Western immunoblot analysis of XBP-1s. HT1080 cells were left untreated (lane 2) or exposed to Tm (4 μg/ml) for 20 hours in the presence of DMSO vehicle (lane 1) or the indicated irestatins (2 μM; lanes 3-6). […] Cells were harvested, lysed, and analyzed by immunoblotting with antisera specific for HIF-1α (top), XBP-1s (middle) or actin (bottom). […] Total RNA was analyzed by Northern blotting using radiolabeled probes specific for P58^IPK or DER-1. […]

Test [2] has as its system 5×-UPRE luciferase reporter (XBP-1s). Put plainly: 5×-UPRE luciferase reporter assay, HT1080 cells. The class given is cell-based, human. Here is the method: as §1
A. XBP-luciferase reporter construct. Firefly luciferase was inserted downstream of the IRE1α splice site in human XBP-1 to enable the conditional translation of luciferase under ER stress in an IRE1α-dependent manner. B. Selective inhibition of the XBP-luciferase reporter by irestatin 9389. HT1080 human fibrosarcoma cells stably expressing the XBP-luciferase reporter or CMV-luciferase were cultured in the presence of Tm (4 μg/ml) and Tg (0.4 μM) and irestatin 9389 at the indicated concentrations. After 24 hours, luciferase activity was analyzed in an automated plate reader. For each cell line, values are expressed as the percent inhibition of the median for Tm/Tg-treated wells, corrected for background. C. Structure of irestatin 9389. […] Values are expressed as the fold increases over uninduced levels. […] Cells were harvested, lysed, and analyzed by immunoblotting with antisera specific for HIF-1α (top), XBP-1s (middle) or actin (bottom). […] Total RNA was analyzed by Northern blotting using radiolabeled probes specific for P58^IPK or DER-1. […]
Since these assays employed a chimeric XBP-luciferase substrate, we next determined whether irestatin 9389 could inhibit the function of endogenous XBP-1s. […]
For orientation: In a reporter assay the amount or activity of a reporter protein is the signal.

Molecules are shown by their SMILES.

With `Cc1csc(NC(=O)CSc2nc3c(c(C(F)(F)F)c2C#N)CCC3)n1` [Compound 9389], the “hypoxia-induced increase of XBP-luciferase activity” value in test [1] (1 μM, 48 hours of hypoxia (control 95-fold)) was “robustly inhibited this response”. Further, the “activation of the XBP-luciferase reporter under hypoxia” value in test [1] (1 μM, hypoxia (<0.1% oxygen) for 24 or 48 hours) is recorded as “diminished activation”. Also, in test [1] (Homo sapiens, HT-1080, irestatin 9389 1 μM, Tm 24 hours, read-out: inhibition of Tm-mediated activation of the XBP-luciferase reporter), the inhibition at 1 µM is above 90%. Further, in test [2] (48 hours of hypoxia (vehicle 170-fold)), the “diminution of hypoxia-induced UPRE luciferase response” value is “more than 90%”. Also, the “induction of 5×-UPRE luciferase activity over untreated cells” value in test [2] (cells exposed to both Tm and irestatin 9389) is on record as below 4 fold.
